Measurements taken from patent publication US8173604B2, “Inhibition of Skp2-cyclin a interaction” (Albert Einstein College of Medicine of Yeshiva University, priority 2006, dated 2012).
Entries after “also recorded” stand apart in the source; their conditions may differ. Numbered stars: 1 amine (or outer) side, 2 acyl side, 3 side chain; on linkers, the order of the positions; unused ones are H or OH. Bridge positions count the residues as written; N and C are the ends. Square brackets hold non-standard residues; d marks the D form. Peptide text beside a SMILES is read from it. I, II: the chains in the order shown. Actinocin(9to1) = Cc1c2oc3c(C)ccc(C(=O)[*:1])c3nc-2c(C(=O)[*:2])c(N)c1=O; NMeV = CN[C@H](C(=O)O)C(C)C; Sar = CNCC(=O)O

Tests used:
[1] = biological target: T1, cyclin A/Cdk2 (Homo sapiens, UniProt P20248+P24941); assay: In vitro cyclin A/Cdk2 kinase assay with purified proteins (GST-Rb-C substrate); format: biochemical; conditions: for Preventing Skp2N from protecting cyclin A/Cdk2 from inhibition by p27: cyclin A/Cdk2 3 nM, p27 5 nM, Skp2N 80 nM, increasing amounts of peptide
T1 construct: made in house; host or cells: insect cells (baculovirus)
Protocol: (§1) Cyclin A/Cdk2 kinase assays were performed as described previously (Ji et al., 2004). Both immuno-purified myc-cyclin A/Cdk2 on beads and GST-purified and eluted GST-cyclin A/Cdk2 (baculovirus vectors for GST-cyclin A and Cdk2 were provided by Brian Dynlacht) were used. The amounts of purified proteins were determined by comparing them with known amounts of standard proteins in Coomassie blue stained gels. Phosphorylation of GST-Rb-C was quantified with the ImageQuant software. The Ki of various proteins was determined by non-linear least squares analysis. To determine the amounts of various proteins in synchronized HeLa cells, extracts representing 7.5×10^4 HeLa cells were resolved with known amounts of purified proteins and compared in the same Western blots. Actual amounts of proteins in 7.5×10^4 HeLa cells were then determined (for example, the amounts of p27, Skp2, and cyclin A in 7.5×10^4 HeLa cells were determined to be about 0.1, 0.2, and 0.1 pmoles, respectively, at 14 hours post-replating; and about 0.01, 0.1, and 1.0 pmoles, respectively, at 19 hours post-replating).
For kinase reactions, insect cell-produced and purified GST-cyclin A/Cdk2 was used at a concentration of ˜3 nM, which was the lowest concentration that yielded readily detectible phosphorylation of GST-Rb-C here. Purified p27, GST-Skp2, and Skp2N were titrated into the kinase reaction over a wide range of concentrations (FIGS. 7A, B, and C). Phosphorylation of Rb-C was measured and plotted, and the Ki of these various proteins were determined by non-linear least squares analysis (FIG. 7F).
Since Skp2 competes with p27 for binding to cyclin A and Skp2's Ki is about 100-fold higher than p27's Ki, it can be reasoned that, at concentrations well below its Ki, Skp2 might be able to protect cyclin A/Cdk2 from inhibition by p27. To test this hypothesis, the same cyclin A/Cdk2 kinase assay was carried out to determine the inhibitory activity of p27 in the presence of 80 nM of Skp2N.
It was then determined whether the 4060 peptide could prevent Skp2N from protecting cyclin A/Cdk2 from inhibition by p27. […] When 80 nM of Skp2N was included, 5 nM of p27 lost its ability to inhibit the kinase activity (lane 3). […] These findings indicate that the Skp2-cyclin A interaction is also a potential target to inhibit cyclin A kinase activity in tumor cells, particularly those overexpressing Skp2.
To test this prediction, various peptides were added to an in vitro kinase reaction with purified cyclin A/Cdk2 (˜3 nM concentration). An E2F1-derived RxL peptide, LDL peptide, was used for comparison since it could inhibit cyclin A/Cdk2 kinase activity (Sun et al., 2006, and see next section). Since a TAT sequence was later added to these peptides for trans-membrane delivery (see next section), two versions of each peptide (without TAT and with TAT) was used in these kinase assays. These two versions of peptides yielded identical results and therefore only presented results with one version of the peptides.
The effects of the 4060 peptide on cyclin A/Cdk2 kinase activity in the presence of Skp2 and p27 were then determined.

[2] = test system: human diploid fibroblasts WI-38; assay: Cell survival MTS assay, WI-38; format: cell-based; conditions: 120 μM, 24 hours
Protocol: In comparison, both TAT-Umt and TAT-4060 inhibited cyclin A/Cdk2 kinase activity in vitro at peptide concentrations of 100 μM (FIG. 11B). It is currently unknown how peptide concentrations in the culture media translate into intro-cellular peptide concentrations.
(§2) Cell proliferation and survival assays. For the cell proliferation assay shown in FIG. 10D, 1×10^4 cells were plated in each well of 24 well plates and allowed to grow for a course of four days in the presence of 10% FBS. Cell numbers were counted every day from triplet wells. For cell survival assays in FIGS. 13, 14 and 15, 1×10^3 cells were plated in each well of 96 well plates and allowed to adhere overnight in the presence of 10% FBS. The cells were washed once with Opti-MEM (GIBCO) followed by incubation with different concentrations of peptides in Opti-MEM for 24 hours in triplicate. MTS assay was then performed following manufacturer's protocol (Promega).

[3] = test system: U2OS cells; conditions: for Cell killing effect: twenty four hours after addition of peptides
Protocol: It is currently unknown how peptide concentrations in the culture media translate into intro-cellular peptide concentrations.
Whether artificial manipulation of Skp2 protein levels in U2OS cells could change the IC50 of various peptides was also investigated.
as §2

[4] = biological target: T2, interaction between cellular Skp2 and cyclin A/Cdk2 (Homo sapiens, UniProt P20248); assay: Coimmunoprecipitation with cyclin A from peptide-treated U2OS cells; format: cell-based; conditions: 50 μM peptide, twelve hours
T2 construct: endogenous in cells; host or cells: U2OS
Protocol: FIG. 12 is photographs of western blots and kinase assays and graphs showing the effects of trans-membrane delivery of the 4060 peptide. In Panel A, U2OS cells were treated with 50 μM of indicated peptide for twelve hours. Cell extracts were prepared for immunoprecipitation and Western blot analysis as indicated. […] In Panel C, the same extracts were used in IP-kinase assays as indicated. The extent of phosphorylation was quantified and plotted.
The loss of Skp2-cyclin A/Cdk2 interaction was not due to a reduction in levels of these proteins (FIG. 12B). Importantly, cellular p27 protein levels were not affected by the blocking peptide. […] Here, it is important to point out that although we used p27 as an inhibitor of cyclin A-associated kinase activity in purified kinase reactions with the 4060 blocking peptide shown in FIG. 11, the effects of blocking Skp2-cyclin A interaction on cyclin A-associated kinase activity in cells is unlikely to be mediated by p27 alone. There was no significant interaction between p27 and cyclin A in U2OS cells before and after treatment of TAT-4060. p27 family members p21 and p57, and the pocket proteins p107 and p130 (Adams et al., 1996) may bind and inhibit cyclin A-associated kinase activity through the RxL-HP interaction mechanism. […]

[5] = biological target: T1, cyclin A/Cdk2; assay: IP-kinase assay with myc-cyclin A/Cdk2 transfected 293T cell extract; format: biochemical; conditions: increasing amounts of peptide
Protocol: In panel A, an IP-kinase assay was performed with myc-cyclin A/Cdk2 transfected 293T cell extract in the presence of increasing amounts of RxL or 4060 peptides. Phosphorylation of GST-Skp2N is visible in this gel. […] As indicated, increasing amounts of the 4060 or 4060AAAA peptides were included in the reactions. Phosphorylation of Rb-C was quantified and plotted as shown.
as §1, with “To determine the amounts of various proteins in synchronized HeLa cells, extracts representing 7.5×10^4 HeLa cells were resolved with known amounts of purified proteins and compared in the same Western blots.” left out, “post-replating). […]” for “post-replating).”

[6] = biological target: T3, Skp2-cyclin A interaction (Homo sapiens, UniProt P20248); assay: GST pull-down, blocking of Skp2-cyclin A interaction by peptides; format: binding; conditions: for Blocking of Skp2N-cyclin A interaction: GST-Skp2N, myc-cyclin A/Cdk2 transfected 293T cell extracts
T3 construct: expressed in transfected cells; host or cells: 293T (cyclin A/Cdk2)
Protocol: GST pull down, p27 ubiquitylation assay, and cyclin A kinase assay. GST fusion proteins were purified on GSH-beads (Amersham), which were then incubated with transfected cell extracts for 1 hour in 4° C. with rocking. The beads were washed three times with lysis buffer (25 mM Hepes pH 7.6, 100 mM KCl, 0.1 mM EDTA, 10 mM MgCl2, 0.1% NP-40, 10% glycerol, 1 mM DTT) before analysis by SDS-PAGE and Western blotting.
Skp2-cyclin A interaction and p27-cyclin A interaction can be blocked by distinct peptides. An important aspect of the RxL-1-IP interaction is that it can be blocked by a short RxL peptide (Adams et al., 1996). If the Skp2-cyclin A/Cdk2 interaction and the p27-cyclin A/Cdk2 interaction are mediated by different sequences on both sides of the interaction, as shown above, it can be predicted that the RxL peptide should not block Skp2-cyclin A interaction. […] Peptide concentrations required for their respective blocking activities were similar for RxL and 4060 peptides.

[7] = test system: U2OS cells; assay: Flow cytometry cell cycle profile after actinomycin D; format: cell-based, human; conditions: actinomycin D 180 nM, 20 hours
Protocol: Drug treatment and various routine assays. Actinomycin D (Sigma) treatment was for 20-22 hours at 180 nM. To arrest HeLa cells in mitotic phase, cells were treated with 100 ng/ml nocodazole (Sigma) for 16-17 hours. Western blotting, immunoprecipitation, indirect immunofluorescence, and flow cytometry analysis to determine cell cycle profiles were all performed with standard protocols and as described previously (Ji et al., 2004).
The AAAA mutation compromises Skp2's proliferation stimulatory activity without affecting its ability to cause degradation of cellular p27 and p21. […] Similar to the experiment shown in FIG. 6B, U2OS cells were treated with actinomycin D, which led to activation of p53, stimulation of p21 expression, and G1 cell cycle arrest manifested by a 20% increase in G1 phase cells (FIGS. 9A and B). Skp2 was overexpressed in U2OS cells to determine whether Skp2 could counter the G1 cell cycle arrest mediated by this actinomycin D triggered checkpoint.

Compound | WI-38 cells killed [2] | Change of peptide effect by Skp2 knockdown or overexpression ([3]; U2OS) | Cell killing effect ([3]; U2OS) | Preventing Skp2N from protecting cyclin A/Cdk2 from inhibition by p27 [1] | Blocking of Skp2N-cyclin A interaction [6] | other results
YGRKKRRQRRRGETDHQYLAESS (TAT-Umt) [reference compound] | no effect | not affected by Skp2 knockdown or overexpression | did not have cell killing effects | – | – | Inhibitory effect on cyclin A/Cdk2 kinase activity ([1]; 1 μM and 10 μM peptide): did not show inhibitory effect; Inhibition of cyclin A/Cdk2 kinase activity ([1]; 100 μM peptide): significant inhibition; Cell killing effect at 120 μM ([3]; 120 μM): did not exhibit cell killing effects
YGRKKRRQRRRGKTSEAASGMGVAAAEKEE (TAT-4060AAAA) [mutant control peptide, reference compound] | – | – | did not have significant cell killing effects | – | – | Dissociation of interaction between cellular Skp2 and cyclin A/Cdk2 [4]: did not have this effect
CC(C)C[C@H](NC(=O)[C@H](CC(=O)O)NC(=O)[C@H](CC(C)C)NC(=O)[C@H](CCCNC(=N)N)NC(=O)[C@H](CCCNC(=N)N)NC(=O)[C@H](CCCCN)NC(=O)[C@@H](NC(=O)[C@@H]1CCCN1C(=O)CNC(=O)[C@H](CCCNC(=N)N)NC(=O)[C@H](CCCNC(=N)N)NC(=O)[C@H](CCCNC(=N)N)NC(=O)[C@H](CCC(N)=O)NC(=O)[C@H](CCCNC(=N)N)NC(=O)[C@H](CCCNC(=N)N)NC(=O)[C@H](CCCCN)NC(=O)[C@H](CCCCN)NC(=O)[C@H](CCCNC(=N)N)NC(=O)CNC(=O)[C@@H](N)Cc1ccc(O)cc1)C(C)C)C(=O)O [TAT-LDL, reference compound] | 25% | not affected by Skp2 knockdown or overexpression | – | – | – | Inhibition of cyclin A/Cdk2 kinase activity towards GST-Rb-C ([1]; 1 μM peptide, cyclin A/Cdk2 ~3 nM): ten-fold; Cell killing effect of single peptide ([3]; U2OS, 1 or 2 μM, 24 hours): neither TAT-LDL nor TAT-4060 exhibited any cell killing effects
KTSELLSGMGVSALEKEE (listed as Homo sapiens) [compound 4060] | – | – | – | p27 gradually regained its inhibitory effects; also recorded: abolished this protective effect in a dose-dependent manner | can block | Effect of peptide itself on cyclin A/Cdk2 kinase activity towards Rb-C [5]: did not; Blocking of binding between full-length GST-Skp2 and cyclin A/Cdk2 ([6]; full-length GST-Skp2): blocked binding
KTSEAASGMGVAAAEKEE (peptide 4060AAAA) [4060 peptide with the four conserved residues mutated to alanine, reference compound] | – | – | – | did not have significant effects; also recorded: much weaker in disrupting the protective effect of Skp2N | abolished the blocking activity | –
Cc1c2oc3c(C)ccc(C(=O)N[C@@H]4C(=O)N[C@H](C(C)C)C(=O)N5CCC[C@H]5C(=O)N(C)CC(=O)N(C)[C@@H](C(C)C)C(=O)O[C@@H]4C)c3nc-2c(C(=O)N[C@@H]2C(=O)N[C@H](C(C)C)C(=O)N3CCC[C@H]3C(=O)N(C)CC(=O)N(C)[C@@H](C(C)C)C(=O)O[C@@H]2C)c(N)c1=O [actinomycin D, Actinomycin D] (I: T[dV]P[Sar][NMeV] / II: T[dV]P[Sar][NMeV]; ester I:1-I:C, II:1-II:C; linker I:N-II:N via Actinocin(9to1)) | – | – | – | – | – | Increase in G1 phase cells [7]: 20%
